Data on six compounds can be found in paper PMC7114147 (Antiviral Research, 2013).

The subject of test [1] is A/Virginia/ATCC3/2009 (2009 pandemic A/H1N1). It is filed as cell-based, influenza A virus. The note with it: read-out: Antiviral activity (EC50) A/2009pan.
Test [2] concerns A/X-31 (A/H3N2). It is filed as cell-based, influenza A virus. To be noted: read-out: Antiviral activity (EC50) A/X-31.
The test system of test [3] is A/PR/8/34 4 #8 cl3. The test can be described thus: microbe, parasite or virus in culture. It is filed as cell-based. The note with it: Influenza A virus, PR/8, pH 5.7, read-out: Antiviral activity (EC50), 4 #8 cl3.
The subject of test [4] is A/PR/8/34 6c #8 cl3. Kind of test: microbe, parasite or virus in culture. It is filed as cell-based. To be noted: Influenza A virus, PR/8, pH 5.5, read-out: Antiviral activity (EC50), 6c #8 cl3.
For test [5], the target named is S31N mutant A/M2 (Influenza A virus, UniProt P0DOF5, S31N). It is filed as biochemical, influenza A/Udorn/72.
Test [6] has as its target V27A mutant A/M2 (Influenza A virus, UniProt P0DOF5, V27A). It is filed as biochemical, influenza A/Udorn/72.
Test [7] deals with A/H1N1 (A/PR/8/34). Kind of test: microbe, parasite or virus in culture. It is filed as cell-based, influenza A virus. The note with it: read-out: Antiviral activity (EC50) A/PR/8/34.

For the compound `NC12CC3CC(CC(C3)C1)C2` [Amantadine, amantadine], the EC50 in test [1] is 137 ± 10 µM; in test [2], 61 ± 12 µM; in test [3], > 250 µM; in test [4] it was > 250 µM.

Turning to `C1=CC2C3C4C5C=CC4C24CNCC54C13` [Compound 3, 3-azahexacyclo[7.6.0.0^1,5.0^5,12.0^6,10.0^11,15]pentadeca-7,13-diene], in test [5], the “Activity against S31N mutant A/M2” value was “inactive”. Besides, the “Activity against V27A mutant A/M2” value in test [6] is “inactive”.

Turning to `CCC(CC)O[C@@H]1C=C(C(=O)O)C[C@H](N)[C@H]1NC(C)=O` [Oseltamivir carboxylate], the EC50 in test [7] was 21 ± 9 µM; in test [2], 0.11 ± 0.05 µM.

`NC(=O)c1ncn([C@@H]2O[C@H](CO)[C@@H](O)[C@H]2O)n1` [Ribavirin]: the EC50 in test [7] was 8.7 ± 0.7 µM; in test [1] it was 11 ± 1 µM; in test [2] it was 8.8 ± 0.2 µM; in test [3] it was 26 ± 4 µM; in test [4], 24 ± 3 µM.

`CC(N)C12CC3CC(CC(C3)C1)C2` (stereo not drawn) [Rimantadine, rimantadine]: in test [5], the “Activity against S31N mutant A/M2” value is “inactive”. The “Activity against V27A mutant A/M2” value in test [6] was “inactive”. Besides, the EC50 in test [1] was ≥ 158 µM; in test [2], 7 ± 1.7 µM; in test [3], > 100 µM; in test [4], > 100 µM.

In the case of `CC(=O)N[C@H]1[C@H]([C@H](O)[C@H](O)CO)OC(C(=O)O)=C[C@@H]1N=C(N)N` [Zanamivir], the EC50 in test [7] came out at 6 ± 1.3 µM; in test [2], 0.16 ± 0.05 µM.
